Activity calls are given as the source filed them.
How the values were obtained:
[1] = target: T1, Estrogen receptor (Homo sapiens, UniProt P03372); test: potentiators of ERα–SRC-1 coactivator binding, dose response, biochemical, TR-FRET, ERα LBD (AID 737)
T1 sequence (P03372 whole entry): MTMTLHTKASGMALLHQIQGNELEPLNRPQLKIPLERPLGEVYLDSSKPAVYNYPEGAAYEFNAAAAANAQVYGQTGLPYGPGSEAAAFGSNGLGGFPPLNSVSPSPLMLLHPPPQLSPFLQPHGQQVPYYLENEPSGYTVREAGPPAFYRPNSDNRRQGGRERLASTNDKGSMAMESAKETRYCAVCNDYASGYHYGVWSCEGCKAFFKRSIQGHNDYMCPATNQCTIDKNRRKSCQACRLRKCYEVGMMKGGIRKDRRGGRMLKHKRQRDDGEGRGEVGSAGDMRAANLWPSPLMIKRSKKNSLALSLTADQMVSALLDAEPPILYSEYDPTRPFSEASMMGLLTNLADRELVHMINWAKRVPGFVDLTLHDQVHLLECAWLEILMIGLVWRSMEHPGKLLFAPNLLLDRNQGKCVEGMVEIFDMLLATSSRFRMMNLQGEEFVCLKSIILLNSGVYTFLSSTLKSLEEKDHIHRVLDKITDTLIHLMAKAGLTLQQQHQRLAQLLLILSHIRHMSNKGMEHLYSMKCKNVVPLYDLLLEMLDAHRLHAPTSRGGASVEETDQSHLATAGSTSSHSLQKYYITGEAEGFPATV

[2] = inhibitors of Vif binding to APOBEC3G peptide, primary screen, biochemical, TR-FRET, GST-Vif 1-94, biotin-A3G peptide, dose response retest (AID 1117319); assay type: functional;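 note: TR-FRET signal of purified GST-Vif binding a biotinylated A3G peptide; inhibitors lower the FRET signal by blocking Vif and A3G binding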
[3] = target: NADPH oxidase 1 (Homo sapiens, UniProt Q9Y5S8); test: Luminescence-based cell-based dose response assay to identify inhibitors of NADPH oxidase 1 (NOX1).; assay type: functional
Chain of NADPH oxidase 1 (Q9Y5S8 whole entry): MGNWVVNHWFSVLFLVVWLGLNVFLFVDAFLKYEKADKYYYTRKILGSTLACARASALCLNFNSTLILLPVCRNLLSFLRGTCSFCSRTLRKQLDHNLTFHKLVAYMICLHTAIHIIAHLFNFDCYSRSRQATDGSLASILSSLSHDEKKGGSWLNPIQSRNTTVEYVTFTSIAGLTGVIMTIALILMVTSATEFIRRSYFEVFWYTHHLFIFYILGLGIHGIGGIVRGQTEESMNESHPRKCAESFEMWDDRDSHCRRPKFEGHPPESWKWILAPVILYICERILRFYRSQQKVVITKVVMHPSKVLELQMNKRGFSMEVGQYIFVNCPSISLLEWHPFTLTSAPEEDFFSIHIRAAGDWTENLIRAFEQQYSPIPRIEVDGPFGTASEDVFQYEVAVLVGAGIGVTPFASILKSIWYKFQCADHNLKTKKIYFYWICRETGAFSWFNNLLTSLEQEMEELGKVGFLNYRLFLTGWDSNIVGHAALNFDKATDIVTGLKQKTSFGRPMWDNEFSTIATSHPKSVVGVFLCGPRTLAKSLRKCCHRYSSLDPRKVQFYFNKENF

[4] = target: Lytic switch protein BZLF1 (Epstein-Barr virus (strain B95-8) (HHV-4) (Human herpesvirus 4), UniProt P03206); test: EBV ZTA inhibitors, dose response, counter-screen for EBNA-1 inhibitor project, biochemical, fluorescence polarization, Epstein-Barr virus, 1536-well (AID 2377); design: species or system human gammaherpesvirus 4;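 note: fluorescence polarization of Cy5-labelled ZRE DNA probe bound by purified Zta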
Chain of Lytic switch protein BZLF1 (P03206 whole entry): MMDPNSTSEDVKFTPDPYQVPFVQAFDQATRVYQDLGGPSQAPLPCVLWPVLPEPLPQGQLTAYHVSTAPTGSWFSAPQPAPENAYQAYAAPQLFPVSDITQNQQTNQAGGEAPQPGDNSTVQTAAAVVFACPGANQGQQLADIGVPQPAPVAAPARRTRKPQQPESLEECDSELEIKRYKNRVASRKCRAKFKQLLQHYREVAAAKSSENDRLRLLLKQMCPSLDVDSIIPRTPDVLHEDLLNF

[5] = target: Epstein-Barr nuclear antigen 1 (Epstein-Barr virus (strain B95-8) (HHV-4) (Human herpesvirus 4), UniProt P03211); test: EBNA-1 inhibitors, dose response, biochemical, fluorescence polarization, 1536-well (AID 2381); design: species or system human gammaherpesvirus 4;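 note: fluorescence polarization of a Cy5 DNA probe bound by EBNA-1 protein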
Chain of Epstein-Barr nuclear antigen 1 (P03211 whole entry): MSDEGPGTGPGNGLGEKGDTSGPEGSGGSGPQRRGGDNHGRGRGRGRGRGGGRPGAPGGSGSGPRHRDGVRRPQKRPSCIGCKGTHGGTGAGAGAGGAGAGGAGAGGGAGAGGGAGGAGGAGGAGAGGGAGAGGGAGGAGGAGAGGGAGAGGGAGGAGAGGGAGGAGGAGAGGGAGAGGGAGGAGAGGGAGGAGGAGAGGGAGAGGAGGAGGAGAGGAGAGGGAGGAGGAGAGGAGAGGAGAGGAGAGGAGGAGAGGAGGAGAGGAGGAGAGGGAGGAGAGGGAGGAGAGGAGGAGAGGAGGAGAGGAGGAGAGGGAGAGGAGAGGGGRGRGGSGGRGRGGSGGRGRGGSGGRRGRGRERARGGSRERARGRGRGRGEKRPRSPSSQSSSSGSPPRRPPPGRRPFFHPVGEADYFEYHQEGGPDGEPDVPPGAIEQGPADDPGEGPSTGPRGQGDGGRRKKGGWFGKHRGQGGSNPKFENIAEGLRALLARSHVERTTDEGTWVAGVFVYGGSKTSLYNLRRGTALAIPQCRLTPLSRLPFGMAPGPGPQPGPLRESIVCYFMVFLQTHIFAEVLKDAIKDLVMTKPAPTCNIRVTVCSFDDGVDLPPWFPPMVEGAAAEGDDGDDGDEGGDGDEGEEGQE

[6] = target: Bcl-2-like protein 1 (Homo sapiens, UniProt Q07817); test: BCL-XL inhibitors, dose response, selectivity assay for MCL1 inhibitor project, biochemical, fluorescence polarization, 1536-well (AID 2218)
Chain of Bcl-2-like protein 1 (Q07817 whole entry): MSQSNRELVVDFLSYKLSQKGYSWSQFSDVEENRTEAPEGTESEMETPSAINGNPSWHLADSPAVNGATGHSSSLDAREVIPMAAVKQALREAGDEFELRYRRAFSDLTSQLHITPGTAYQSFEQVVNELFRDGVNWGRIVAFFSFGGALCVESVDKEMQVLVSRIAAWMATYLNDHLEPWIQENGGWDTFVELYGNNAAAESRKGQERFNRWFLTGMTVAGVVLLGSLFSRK

[7] = target: Large T antigen (Simian virus 40, UniProt P03070); assay type: functional, Betapolyomavirus macacae;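 note: Confirmatory-stage PubChem screen for compounds that inhibit SV40 T antigen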
Chain of Large T antigen (P03070 whole entry): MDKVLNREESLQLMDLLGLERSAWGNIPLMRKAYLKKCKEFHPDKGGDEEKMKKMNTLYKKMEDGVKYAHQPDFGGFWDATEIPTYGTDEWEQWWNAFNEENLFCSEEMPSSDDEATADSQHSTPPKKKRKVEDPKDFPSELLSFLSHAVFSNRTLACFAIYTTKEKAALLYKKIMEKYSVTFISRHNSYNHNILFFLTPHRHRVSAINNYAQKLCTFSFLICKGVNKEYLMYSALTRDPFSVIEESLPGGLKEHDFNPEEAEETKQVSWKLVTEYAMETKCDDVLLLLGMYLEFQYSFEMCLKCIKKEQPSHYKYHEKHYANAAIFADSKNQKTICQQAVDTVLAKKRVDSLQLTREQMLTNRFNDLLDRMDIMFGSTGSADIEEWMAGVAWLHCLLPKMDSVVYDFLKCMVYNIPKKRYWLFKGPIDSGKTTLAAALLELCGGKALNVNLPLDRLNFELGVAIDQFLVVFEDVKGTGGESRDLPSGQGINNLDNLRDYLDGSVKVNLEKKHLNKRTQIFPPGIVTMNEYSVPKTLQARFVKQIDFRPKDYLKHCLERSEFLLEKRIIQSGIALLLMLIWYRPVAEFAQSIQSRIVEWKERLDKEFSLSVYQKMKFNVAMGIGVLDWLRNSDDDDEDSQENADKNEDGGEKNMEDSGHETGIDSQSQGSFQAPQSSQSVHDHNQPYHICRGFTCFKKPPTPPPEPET

[8] = target: T2, Alkaline phosphatase, tissue-nonspecific isozyme (Homo sapiens, UniProt P05186); test: human TNAP enzyme inhibitors, SAR follow-up, biochemical, luminescent, dose response (AID 1056)
T2 sequence (P05186 whole entry): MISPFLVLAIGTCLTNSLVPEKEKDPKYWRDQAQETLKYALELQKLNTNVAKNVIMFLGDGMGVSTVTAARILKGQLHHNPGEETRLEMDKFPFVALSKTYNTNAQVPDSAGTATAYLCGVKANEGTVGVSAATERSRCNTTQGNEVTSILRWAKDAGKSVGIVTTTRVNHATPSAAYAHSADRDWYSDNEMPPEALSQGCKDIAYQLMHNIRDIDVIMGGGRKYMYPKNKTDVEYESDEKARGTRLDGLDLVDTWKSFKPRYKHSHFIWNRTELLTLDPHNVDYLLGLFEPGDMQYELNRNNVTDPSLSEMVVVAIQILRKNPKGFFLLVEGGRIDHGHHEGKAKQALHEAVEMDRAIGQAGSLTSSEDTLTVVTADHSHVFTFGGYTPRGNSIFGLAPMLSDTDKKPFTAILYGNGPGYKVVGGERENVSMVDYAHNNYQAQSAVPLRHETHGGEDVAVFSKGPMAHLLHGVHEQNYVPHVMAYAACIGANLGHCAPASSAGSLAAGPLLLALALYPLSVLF

[9] = target: Induced myeloid leukemia cell differentiation protein Mcl-1 (Homo sapiens, UniProt Q07820); test: MCL1-BIM BH3 interaction inhibitors, dose response, biochemical, fluorescence polarization, BIM-BH3 peptide, 1536-well (AID 2217)
Chain of Induced myeloid leukemia cell differentiation protein Mcl-1 (Q07820 whole entry): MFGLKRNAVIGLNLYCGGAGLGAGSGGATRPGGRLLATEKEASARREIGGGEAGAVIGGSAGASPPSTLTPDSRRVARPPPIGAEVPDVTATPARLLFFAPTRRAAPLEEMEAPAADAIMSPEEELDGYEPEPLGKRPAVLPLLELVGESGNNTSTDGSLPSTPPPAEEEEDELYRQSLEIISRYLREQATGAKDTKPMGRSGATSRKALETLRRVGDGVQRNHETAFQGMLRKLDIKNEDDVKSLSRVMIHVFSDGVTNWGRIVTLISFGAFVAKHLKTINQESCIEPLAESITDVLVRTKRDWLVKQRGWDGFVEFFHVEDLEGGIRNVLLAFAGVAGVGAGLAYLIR

[10] = target: T3, Histone-lysine N-methyltransferase NSD2 (Homo sapiens, UniProt O96028); assay type: biochemical
T3 sequence (O96028 whole entry): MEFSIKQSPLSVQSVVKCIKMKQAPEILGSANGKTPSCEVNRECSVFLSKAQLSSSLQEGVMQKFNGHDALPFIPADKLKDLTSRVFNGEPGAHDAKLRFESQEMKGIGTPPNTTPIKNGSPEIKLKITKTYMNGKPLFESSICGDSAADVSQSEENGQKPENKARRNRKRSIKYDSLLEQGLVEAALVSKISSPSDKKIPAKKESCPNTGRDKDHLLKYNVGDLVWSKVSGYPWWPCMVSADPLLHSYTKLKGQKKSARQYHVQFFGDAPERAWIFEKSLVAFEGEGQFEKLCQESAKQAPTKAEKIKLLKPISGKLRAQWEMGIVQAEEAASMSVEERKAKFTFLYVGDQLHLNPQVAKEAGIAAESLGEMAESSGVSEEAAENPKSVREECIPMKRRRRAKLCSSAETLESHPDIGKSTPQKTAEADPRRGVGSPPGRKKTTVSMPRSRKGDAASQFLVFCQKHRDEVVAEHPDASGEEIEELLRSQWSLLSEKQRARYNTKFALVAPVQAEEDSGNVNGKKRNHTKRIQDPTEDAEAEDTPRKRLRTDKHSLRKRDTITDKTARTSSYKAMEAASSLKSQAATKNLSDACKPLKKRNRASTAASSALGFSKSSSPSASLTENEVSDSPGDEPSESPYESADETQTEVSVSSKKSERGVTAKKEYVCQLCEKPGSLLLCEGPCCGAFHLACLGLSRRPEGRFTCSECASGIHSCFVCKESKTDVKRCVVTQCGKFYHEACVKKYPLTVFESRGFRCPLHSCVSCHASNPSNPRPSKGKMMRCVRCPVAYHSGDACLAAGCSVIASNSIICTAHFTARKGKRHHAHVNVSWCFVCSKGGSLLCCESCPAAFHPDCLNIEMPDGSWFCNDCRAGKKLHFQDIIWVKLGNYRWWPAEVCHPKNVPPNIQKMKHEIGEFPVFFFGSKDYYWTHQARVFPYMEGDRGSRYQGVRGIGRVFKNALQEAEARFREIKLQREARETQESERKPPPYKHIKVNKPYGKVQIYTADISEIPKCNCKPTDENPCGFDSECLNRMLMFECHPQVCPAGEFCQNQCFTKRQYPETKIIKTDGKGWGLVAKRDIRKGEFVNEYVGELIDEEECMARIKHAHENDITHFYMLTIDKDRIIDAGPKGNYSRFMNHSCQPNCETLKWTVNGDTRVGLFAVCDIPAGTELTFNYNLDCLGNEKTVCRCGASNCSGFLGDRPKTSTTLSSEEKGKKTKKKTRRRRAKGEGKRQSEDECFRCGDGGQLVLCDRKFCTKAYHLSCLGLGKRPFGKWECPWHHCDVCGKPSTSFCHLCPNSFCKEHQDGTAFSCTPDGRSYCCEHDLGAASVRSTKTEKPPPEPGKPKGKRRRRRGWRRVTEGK

[11] = target: Alkaline phosphatase, placental type (Homo sapiens, UniProt P05187); test: PLAP enzyme inhibitors, confirmation, biochemical, luminescence (AID 1512); assay type: functional
Chain of Alkaline phosphatase, placental type (P05187 whole entry): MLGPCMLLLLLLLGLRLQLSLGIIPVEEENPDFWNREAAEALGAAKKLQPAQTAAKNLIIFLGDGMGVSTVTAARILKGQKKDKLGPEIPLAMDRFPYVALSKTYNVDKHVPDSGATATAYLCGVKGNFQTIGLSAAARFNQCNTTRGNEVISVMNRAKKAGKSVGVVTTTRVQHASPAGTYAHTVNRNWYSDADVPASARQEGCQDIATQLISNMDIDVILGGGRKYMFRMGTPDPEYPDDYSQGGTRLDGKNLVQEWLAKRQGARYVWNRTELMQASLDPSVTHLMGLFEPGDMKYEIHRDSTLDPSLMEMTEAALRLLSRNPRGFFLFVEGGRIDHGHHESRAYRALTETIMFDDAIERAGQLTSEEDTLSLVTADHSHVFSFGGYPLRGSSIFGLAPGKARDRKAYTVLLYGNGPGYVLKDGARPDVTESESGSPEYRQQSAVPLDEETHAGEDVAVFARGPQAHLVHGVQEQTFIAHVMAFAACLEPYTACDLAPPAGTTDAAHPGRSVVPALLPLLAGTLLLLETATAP

[12] = target: T4, Neuropeptide Y receptor type 2 (Homo sapiens, UniProt P49146); test: NPY-Y2 antagonist potency, selectivity check, dose response, counter-screen for NPY-Y1 antagonist project, cell-based (AID 1278); assay type: functional
T4 sequence (P49146 whole entry): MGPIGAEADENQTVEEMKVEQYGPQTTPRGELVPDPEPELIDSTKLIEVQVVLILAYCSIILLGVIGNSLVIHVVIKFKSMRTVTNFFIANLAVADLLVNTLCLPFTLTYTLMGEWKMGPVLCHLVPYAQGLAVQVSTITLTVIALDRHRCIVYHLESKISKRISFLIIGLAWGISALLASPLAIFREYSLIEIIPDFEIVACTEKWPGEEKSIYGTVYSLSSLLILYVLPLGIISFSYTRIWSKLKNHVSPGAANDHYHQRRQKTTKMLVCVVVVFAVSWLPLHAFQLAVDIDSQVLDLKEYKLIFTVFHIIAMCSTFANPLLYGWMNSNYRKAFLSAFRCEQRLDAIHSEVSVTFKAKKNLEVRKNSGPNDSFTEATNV

[13] = target: T5, Neuropeptide Y receptor type 1 (Homo sapiens, UniProt P25929); test: NPY-Y1 receptor antagonist potency, dose response, cell-based (AID 1277); assay type: functional
T5 sequence (P25929 whole entry): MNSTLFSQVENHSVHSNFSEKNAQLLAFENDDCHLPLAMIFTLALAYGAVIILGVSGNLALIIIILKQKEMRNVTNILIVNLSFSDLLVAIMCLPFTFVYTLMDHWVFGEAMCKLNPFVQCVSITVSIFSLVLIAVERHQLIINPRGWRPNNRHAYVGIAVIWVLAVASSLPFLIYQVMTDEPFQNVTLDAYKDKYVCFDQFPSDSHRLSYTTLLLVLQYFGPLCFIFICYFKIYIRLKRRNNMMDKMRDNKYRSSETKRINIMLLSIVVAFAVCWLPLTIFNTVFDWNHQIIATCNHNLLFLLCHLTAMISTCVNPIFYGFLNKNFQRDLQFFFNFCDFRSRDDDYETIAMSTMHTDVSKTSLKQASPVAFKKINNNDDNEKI

[14] = target: Sphingosine 1-phosphate receptor 2 (Homo sapiens, UniProt O95136); test: Dose Response Cell Based Assay for Agonists of the S1P2 Receptor of Purchased Analogues. [Related pubchem assays: 729, 843, 854, 736 ]; assay type: functional
Chain of Sphingosine 1-phosphate receptor 2 (O95136 whole entry): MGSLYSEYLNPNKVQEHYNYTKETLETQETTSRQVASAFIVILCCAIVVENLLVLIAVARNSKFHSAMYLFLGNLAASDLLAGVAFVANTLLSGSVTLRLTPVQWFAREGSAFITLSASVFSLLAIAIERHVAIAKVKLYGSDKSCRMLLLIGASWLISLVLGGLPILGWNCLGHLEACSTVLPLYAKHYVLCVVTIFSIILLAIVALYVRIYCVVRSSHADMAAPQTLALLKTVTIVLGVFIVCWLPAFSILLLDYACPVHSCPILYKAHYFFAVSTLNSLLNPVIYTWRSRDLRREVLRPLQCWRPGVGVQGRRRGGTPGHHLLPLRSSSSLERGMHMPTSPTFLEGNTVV

[15] = target: T6, Streptokinase A (Streptococcus pyogenes serotype M1, UniProt P10520); test: S. pyogenes streptokinase expression inhibitors, potency, dose response, plasminogen activation absorbance, OD405 (AID 1914); assay type: functional, Streptococcus pyogenes M1 GAS;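 note: secreted streptokinase activity via plasminogen activation per viability signal from cell pellet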
T6 sequence (P10520 whole entry): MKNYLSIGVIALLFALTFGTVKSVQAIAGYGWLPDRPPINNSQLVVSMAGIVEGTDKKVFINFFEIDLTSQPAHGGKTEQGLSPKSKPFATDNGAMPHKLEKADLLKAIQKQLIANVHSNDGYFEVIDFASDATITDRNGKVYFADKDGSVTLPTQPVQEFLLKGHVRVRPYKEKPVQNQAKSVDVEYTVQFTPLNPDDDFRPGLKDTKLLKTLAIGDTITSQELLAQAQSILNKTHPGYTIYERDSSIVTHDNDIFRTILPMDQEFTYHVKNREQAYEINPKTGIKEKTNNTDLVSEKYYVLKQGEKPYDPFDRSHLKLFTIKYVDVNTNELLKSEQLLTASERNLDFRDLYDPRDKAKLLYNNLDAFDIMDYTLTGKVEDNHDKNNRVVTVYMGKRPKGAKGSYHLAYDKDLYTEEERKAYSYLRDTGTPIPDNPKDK

[16] = tested on: Streptococcus sp. 'group A'; test: growth inhibition of control SK(-) GAS strain, dose response, counter-screen for streptokinase expression inhibitor project, luminescence, kanamycin, BacTiterGlo, confirmation (AID 1900); assay type: functional, organism-based
[17] = target: 5-hydroxytryptamine receptor 1E (Homo sapiens, UniProt P28566); test: Counterscreen assay for S1P3 antagonists: Dose response cell-based high throughput screening assay to identify antagonists of the 5-Hydroxytryptamine Receptor Subtype 1E (5HT1E). [Related pubchem assays: 1429, 485 ]; assay type: functional
Chain of 5-hydroxytryptamine receptor 1E (P28566 whole entry): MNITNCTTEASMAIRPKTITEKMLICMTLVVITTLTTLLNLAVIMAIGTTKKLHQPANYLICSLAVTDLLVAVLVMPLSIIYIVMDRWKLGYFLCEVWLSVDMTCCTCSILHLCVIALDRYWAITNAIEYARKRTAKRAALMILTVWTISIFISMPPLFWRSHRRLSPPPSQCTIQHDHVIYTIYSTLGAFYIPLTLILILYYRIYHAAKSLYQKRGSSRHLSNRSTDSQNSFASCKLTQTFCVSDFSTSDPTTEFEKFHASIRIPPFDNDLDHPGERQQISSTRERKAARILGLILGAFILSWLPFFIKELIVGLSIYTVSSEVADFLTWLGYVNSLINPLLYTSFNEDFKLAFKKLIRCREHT

[18] = A549 cell cytotoxicity, dose response, cytotoxicity control, plate reader, cherry-pick, antagonist series (AID 743412); assay type: functional, cell-based
[19] = target: Sphingosine 1-phosphate receptor 3 (Homo sapiens, UniProt Q99500); test: Dose response cell-based high throughput screening assay for antagonists of the Sphingosine 1-Phosphate Receptor 3 (S1P3). [Related pubchem assays: 1429, 485 ]; assay type: functional
Chain of Sphingosine 1-phosphate receptor 3 (Q99500 whole entry): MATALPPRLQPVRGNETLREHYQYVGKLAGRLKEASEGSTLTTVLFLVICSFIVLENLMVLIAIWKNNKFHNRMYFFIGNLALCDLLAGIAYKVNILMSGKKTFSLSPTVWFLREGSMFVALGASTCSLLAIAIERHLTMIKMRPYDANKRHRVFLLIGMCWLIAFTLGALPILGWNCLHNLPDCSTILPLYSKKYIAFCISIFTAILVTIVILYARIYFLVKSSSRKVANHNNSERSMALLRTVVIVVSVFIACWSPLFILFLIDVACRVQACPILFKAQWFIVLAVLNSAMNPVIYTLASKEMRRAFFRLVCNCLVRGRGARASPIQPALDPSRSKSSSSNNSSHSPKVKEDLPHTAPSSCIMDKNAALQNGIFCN

[20] = HEK293 cell cytotoxicity, dose response, cytotoxicity control, plate reader, cherry-picked samples (AID 743446); assay type: functional, cell-based
[21] = tested on: Streptococcus; test: Group A Streptococcus viability loss, dose response, counter-screen for streptokinase expression inhibitor project, luminescence, BacTiterGlo (AID 1915); assay type: functional, organism-based;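 note: potency for reduction of bacterial viability or growth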
[22] = HepG2 cell cytotoxicity, dose response, cytotoxicity control, plate reader, cherry-pick, antagonist series (AID 743416); assay type: functional, cell-based
[23] = MC4R antagonists, dose response, counter-screen for LGR2 antagonist project, cell-based, plate reader, cherry pick (AID 743444); assay type: functional;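 note: transfected HEK 293 cells stimulated with alpha-MSH peptide; potency of inhibitors of the alpha-MSH evoked signal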
[24] = LGR2 antagonists, dose response, cell-based, HEK293, CRE-luciferase reporter, cherry pick, set 2 (AID 743343); assay type: functional;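 note: transfected cells were stimulated with diluted bursicon conditioned medium after compound addition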

Structure (SMILES): Cc1ccc(F)cc1NC(=O)c1cccc2nccnc12
- EC50 [1]: 13 µM (not active)

Structure (SMILES): CN(C)c1ccc(NC(=O)Nc2cccc(Cl)c2)cc1
- IC50 [2]: > 51.6 µM (active)
- IC50 [3]: 0.048 µM (active)

Structure (SMILES): c1ccc(-c2ccc(C3=Nn4c(nnc4-c4cc(-c5ccccc5)[nH]n4)SC3)cc2)cc1
- IC50 [4]: > 111 µM (not active)
- IC50 [5]: 16.1 µM (not active)

Structure (SMILES): C=CCn1c(SCC(=O)c2ccc(O)c(O)c2)nnc1-c1cccnc1
- IC50 [6]: > 109 µM (not active)
- IC50 [7]: 14.5 µM (active)
- IC50 [8]: 22.2 µM (active)
- IC50 [9]: 9.37 µM (active)
- AC50 [10]: 4.18 µM (active)
- IC50 [11]: 2.92 µM (active)

Structure (SMILES): COC(=O)[C@@]1(Cc2ccc(F)cc2)[C@H]2c3cc(C(=O)N4CCCC4)n(Cc4ccc(C(F)(F)F)nc4)c3C[C@H]2CN1C(=O)c1ccccc1
- IC50 [12]: > 35 µM (not active)
- IC50 [13]: > 35 µM (not active)

Structure (SMILES): Cc1cc(C(=O)COC(=O)C2CCC2)c(C)n1Cc1ccccc1
- EC50 [14]: > 30 µM (not active)

Structure (SMILES): Cc1cccc(Cn2nc(C(C)(C)C)cc2C(=O)Nc2ccc(F)cc2)c1
- EC50 [15]: 1.9 µM (active)
- EC50 [16]: 7.66 µM (active)
- IC50 [17]: 3.86 µM (active)
- AC50 [18]: 26.5 µM (active)
- IC50 [19]: 5.22 µM (active)
- AC50 [20]: 8.76 µM (active)
- EC50 [21]: 16.3 µM (active)
- AC50 [22]: > 52 µM (inactive)
- AC50 [23]: 26.4 µM (active)
- AC50 [24]: 14.6 µM (active)
